Assay results taken from US10729768B2, “Combination of anti-CD20 antibody and PI3 kinase selective inhibitor” (TG Therapeutics, Inc., priority 2012, dated 2020).

Legend:
Format in all cases: cell-based
[1] = test system: CD19-positive cells; test: B cell depletion from human whole blood (HWB), flow cytometry, CD19; details: 1 μM, 24 hrs
Method: A flow cytometry assay was used to compare the ability of S-isomer of compound of formula A, Ublituximab (Ubx), and combinations thereof to deplete B cells from human whole blood (HWB). In this assay, 50 μl of HWB sample was treated with either S-isomer of a compound of formula A (1000 nM), UBX (100 μg/ml to 0.1 μg/ml), or UBX in combination with S-isomer of a compound of formula A at 1000 nM and incubated for 24 hrs at 37° C. and 5% CO2. 20 μl of treated sample was taken in a 1.5 ml centrifuge tube and labeled with CD45 FITC and CD19 PE or CD20 FITC antibody and incubated in the dark for 1 hour at RT. 1 ml of red blood cell (RBC) lysing solution was added, and tubes were centrifuged at 3000 rpm for 10 minutes. […] The tubes were vortexed, and 5000 events were acquired on a Guava® easyCyte™ flow cytometer and analyzed with Incyte Software.
Gated population of CD45-positive cells were further analyzed for CD19. The number of cells that were positive for CD45 and CD19 was calculated, and the data was expressed as the percentage of CD19 positive cells in the population. CD20-positive populations were gated with fluorescence positive minus unlabeled cells, and the data was expressed as the percentage of CD20-positive cells in the population. The loss of CD19/CD20 population from control was calculated and expressed as % depletion with respect to control.

[2] = test system: CD20+ cells; test: LPS-induced proliferation in HWB, flow cytometry, CD20; details: Homo sapiens, 72 hrs
Method: In these experiments, 250 μl of diluted (1:3.5 with RPMI-HG Media) HWB sample was treated with either S-isomer of a compound of formula A (10 μM to 0.1 μM), UBX (100 μg/ml to 0.1 μg/ml) or UBX with S-isomer of a compound of formula A at 1000 nM for 15 minutes followed by 20 μg/ml LPS induction and incubated for 72 hrs at 37° C. and 5% CO2. 20 μl of treated sample was taken in a 1.5 ml centrifuge tube and labeled with CD20 FITC and CD19 PE antibody and incubated in the dark for 1 hour at RT. 1 ml of RBC lysing solution was added and tubes were centrifuged at 3000 rpm for 10 minutes. Supernatant was aspirated, and 250 μl of PBS was added to the pellet. Tubes were vortexed, and 5000 events were acquired on a Guava® easyCyte™ flow cytometer and analyzed with Incyte Software.
Gated population of lymphocytes positive cells were further analyzed for CD19 and CD20. Cells positive for CD19 and/or CD20 were calculated, and data were expressed as the percentage positive cells in the population. The loss of positive population from control with LPS induction was calculated and expressed as % inhibition with respect to control.

[3] = test system: DB Cells; test: cell cycle assay, flow cytometry; details: DB cells
Method: (§1) A cell cycle assay reagent (Millipore) was used to determine the effect of S-isomer of a compound of formula A, UBX, and combinations thereof on the cell cycle in cancerous cells. […] The cells were transferred to microfuge tubes to receive 50 μl of cell cycle reagent and incubated for 30 minutes at RT away from light. Cells were then diluted with 300-400 μl PBS, and a minimum of 10,000 events were acquired on a Guava® easyCyte™ flow cytometer. The data was analyzed with Express Pro software and the percentage of the cell population in different cell cycle stages with respect to control was presented in histograms.

[4] = test system: Daudi cells; test: cell cycle assay, flow cytometry
Method: as §1

[5] = test system: Raji Cells; test: cell cycle assay, flow cytometry
Method: as §1

[6] = test system: U266B1 cells; test: cell cycle assay, flow cytometry
Method: as §1

## CC(C)Oc1ccc(-c2nn([C@@H](C)c3oc4ccc(F)cc4c(=O)c3-c3cccc(F)c3)c3ncnc(N)c23)cc1F [S-isomer, (S)-2-(1-(4-amino-3-(3-fluoro-4-isopropoxyphenyl)-1H-pyrazolo[3,4-d]pyrimidin-1-yl)ethyl)-6-fluoro-3-(3-fluorophenyl)-4H-chromen-4-one]
[1]
  reduction in CD19-positive HWB B-cells: not observed
[2]
  inhibition at 1 µM: ~40%
[3]; 72 h, 0.1 nM
  G0/G1, percentage of the cell population: 54.37
  G2/M, percentage of the cell population: 39.41
  S, percentage of the cell population: 4.84
  Sub G0, percentage of the cell population: 0.84
[3]; 72 h, 1 nM
  G0/G1, percentage of the cell population: 50.61
  G2/M, percentage of the cell population: 41.44
  S, percentage of the cell population: 6.53
  Sub G0, percentage of the cell population: 0.54
[3]; 72 h, 10 nM
  G0/G1, percentage of the cell population: 47.22
  G2/M, percentage of the cell population: 46.85
  S, percentage of the cell population: 4.98
  Sub G0, percentage of the cell population: 0.55
[3]; 72 h, 100 nM
  G0/G1, percentage of the cell population: 41.21
  G2/M, percentage of the cell population: 50.22
  S, percentage of the cell population: 6.96
  Sub G0, percentage of the cell population: 0.43
[3]; 72 h, 1000 nM
  G0/G1, percentage of the cell population: 0.75
  G2/M, percentage of the cell population: 92.79
  S, percentage of the cell population: 0.42
  Sub G0, percentage of the cell population: 5.36
[3]; 72 h, 10,000 nM
  G0/G1, percentage of the cell population: 1.40
  G2/M, percentage of the cell population: 94.87
  S, percentage of the cell population: 0.89
  Sub G0, percentage of the cell population: 2.06
[4]; 72 h, 0.1 nM
  G0/G1, percentage of the cell population: 49.56
  G2/M, percentage of the cell population: 33.23
  S, percentage of the cell population: 14.13
  Sub G0, percentage of the cell population: 0.34
[4]; 72 h, 1 nM
  G0/G1, percentage of the cell population: 48.11
  G2/M, percentage of the cell population: 36.75
  S, percentage of the cell population: 13.27
  Sub G0, percentage of the cell population: 0.74
[4]; 72 h, 10 nM
  G0/G1, percentage of the cell population: 46.84
  G2/M, percentage of the cell population: 37.79
  S, percentage of the cell population: 12.55
  Sub G0, percentage of the cell population: 1.68
[4]; 72 h, 100 nM
  G0/G1, percentage of the cell population: 47.39
  G2/M, percentage of the cell population: 38.05
  S, percentage of the cell population: 11.33
  Sub G0, percentage of the cell population: 1.30
[4]; 72 h, 1000 nM
  G0/G1, percentage of the cell population: 48.27
  G2/M, percentage of the cell population: 40.10
  S, percentage of the cell population: 7.91
  Sub G0, percentage of the cell population: 2.22
[4]; 72 h, 10,000 nM
  G0/G1, percentage of the cell population: 2.53
  G2/M, percentage of the cell population: 65.03
  S, percentage of the cell population: 21.92
  Sub G0, percentage of the cell population: 5.01
[5]; 72 h, 0.1 nM
  G0/G1, percentage of the cell population: 56.54
  G2/M, percentage of the cell population: 33.63
  S, percentage of the cell population: 8.38
  Sub G0, percentage of the cell population: 1.32
[5]; 72 h, 1 nM
  G0/G1, percentage of the cell population: 56.93
  G2/M, percentage of the cell population: 34.13
  S, percentage of the cell population: 5.51
  Sub G0, percentage of the cell population: 1.89
[5]; 72 h, 10 nM
  G0/G1, percentage of the cell population: 55.96
  G2/M, percentage of the cell population: 34.81
  S, percentage of the cell population: 5.80
  Sub G0, percentage of the cell population: 1.06
[5]; 72 h, 100 nM
  G0/G1, percentage of the cell population: 52.81
  G2/M, percentage of the cell population: 37.80
  S, percentage of the cell population: 6.72
  Sub G0, percentage of the cell population: 1.04
[5]; 72 h, 1000 nM
  G0/G1, percentage of the cell population: 52.04
  G2/M, percentage of the cell population: 41.21
  S, percentage of the cell population: 3.92
  Sub G0, percentage of the cell population: 1.29
[5]; 72 h, 10,000 nM
  G0/G1, percentage of the cell population: 10.12
  G2/M, percentage of the cell population: 58.09
  S, percentage of the cell population: 23.17
  Sub G0, percentage of the cell population: 4.90
[6]; 72 h, 0.1 nM
  G0/G1, percentage of the cell population: 59.26
  G2/M, percentage of the cell population: 30.71
  S, percentage of the cell population: 6.55
  Sub G0, percentage of the cell population: 2.75
[6]; 72 h, 1 nM
  G0/G1, percentage of the cell population: 57.73
  G2/M, percentage of the cell population: 36.19
  S, percentage of the cell population: 4.87
  Sub G0, percentage of the cell population: 0.94
[6]; 72 h, 10 nM
  G0/G1, percentage of the cell population: 55.33
  G2/M, percentage of the cell population: 39.28
  S, percentage of the cell population: 5.38
  Sub G0, percentage of the cell population: 0.76
[6]; 72 h, 100 nM
  G0/G1, percentage of the cell population: 48.69
  G2/M, percentage of the cell population: 45.76
  S, percentage of the cell population: 5.49
  Sub G0, percentage of the cell population: 0.75
[6]; 72 h, 1000 nM
  G0/G1, percentage of the cell population: 47.80
  G2/M, percentage of the cell population: 47.13
  S, percentage of the cell population: 4.69
  Sub G0, percentage of the cell population: 0.88
[6]; 72 h, 10,000 nM
  G0/G1, percentage of the cell population: 2.00
  G2/M, percentage of the cell population: 64.31
  S, percentage of the cell population: 0.94
  Sub G0, percentage of the cell population: 28.88
